Holding throughout (assay): biochemical
Format in all cases: binding

For assay [1], the target named is HLA-DR DRB1*0301 (DR3) (Homo sapiens, UniProt P01903+P01911, A100K/A102G/A103R/A169T/F55Y/I96L/K41T/L162R/M171V/P40S/Q125H/Q178H/Q39Y/R42S/S66N/T106N/T262R/W38E/Y61H).
For assay [2], the target named is HLA-DR DRB1*1101 (DR11) (Homo sapiens, UniProt P01903+P01911, A100R/A169T/A87E/I96F/K41T/L162R/M171V/P40S/Q125H/Q178H/Q39Y/Q99D/R42S/S66Y/T262R/V115G/W38E). Particulars: DRB1 *1101.
The target of assay [3] is HLA-DR DRB1*1302 (DR13) (Homo sapiens, UniProt P01903+P01911, A100E/A169T/K41T/L162R/M171V/P40S/Q125H/Q178H/Q39Y/Q99D/R42S/S66N/T262R/V115G/W38E/Y61H). The note with it: DRBI *1302.
The target of assay [4] is HLA-DR DRB5*0101 (DR51) (Homo sapiens, UniProt P01903+Q30154). Particulars: DRB5 *0101.
Assay [5] concerns the target HLA-DR DRB1*0701 (DR7) (Homo sapiens, UniProt P01903+P01911, A100R/A102G/A103Q/D57E/D86V/E43K/F76Y/K127E/L162R/M171V/P40G/Q125H/Q99D/R33Q/R42Y/R54Q/S133A/S66F/T210M/V115G/Y107V/Y59L/Y89S).
Assay [6] addresses HLA-DR DRB1*0101 (DR1) (Homo sapiens, UniProt P01903+P01911, A100R/D57E/F55L/F60I/F76Y/I96L/L162R/M171V/P40L/Q125E/R42F/V115G/Y59C).
Assay [7] addresses HLA-DR DRB4*0101 (DR53) (Homo sapiens, UniProt P01903+P13762, G164S). Particulars: DRB4 *0101.
For assay [8], the target named is HLA-DR DRB1*0901 (DR9) (Homo sapiens, UniProt P01903+P01911, A100R/A103E/D57H/D86V/F55Y/F60I/F76Y/I96F/K127E/L162R/M171V/P40D/Q125H/Q99R/R33Q/R42F/S133A/S66N/T210M/V115G/W38K/Y107V/Y59G/Y89S). Particulars: DRB1 *0901.
Assay [9] concerns the target HLA-DR DRB1*0401 (DR4) (Homo sapiens, UniProt P01903+P01911, A100K/A169T/F76Y/I96L/K127E/L162R/M171V/N62H/P40V/Q125Y/R42H/S133A/S149N/S66Y/V115G/V209L/W38E).
In assay [10] the target is HLA-DR DRB1*1501 (DR15) (Homo sapiens, UniProt P01903+P01911). The note with it: DRBI *1501.
The target of assay [11] is HLA-DR DRB1*0802 (DR8) (Homo sapiens, UniProt P01903+P01911, A100R/A103L/A169T/F76Y/H45Y/I96F/K41T/L162R/M171V/P40S/Q125H/Q178H/Q39Y/Q99D/R218S/R42G/S66Y/V115G/W38E).

Like-named read-outs stand apart in the source and are kept apart here. No end group written: not given here. A value given as a limit tells only on which side of the number the result lay.

Sequence of HLA-DR DRB1*1302 (DR13) (P01903 26-254 limits assumed, other chains not shown): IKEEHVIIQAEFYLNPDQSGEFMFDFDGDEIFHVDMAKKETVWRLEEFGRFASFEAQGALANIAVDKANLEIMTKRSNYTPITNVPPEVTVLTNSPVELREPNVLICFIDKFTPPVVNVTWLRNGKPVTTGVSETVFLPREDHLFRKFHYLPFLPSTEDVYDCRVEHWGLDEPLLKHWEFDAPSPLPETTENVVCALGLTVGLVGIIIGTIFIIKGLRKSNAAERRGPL
Sequence of HLA-DR DRB1*1101 (DR11) (P01903 26-254 limits assumed, other chains not shown): as above
Sequence of HLA-DR DRB1*0301 (DR3) (P01903 26-254 limits assumed, other chains not shown): as above

Regarding VQQLLMGALTVTCPL, the IC50 in assay [1] is 34300 nM; in assay [2], 11100 nM; in assay [3], 574 nM; in assay [4] it was 7150 nM; in assay [5] (DRB1 *0701), 71 nM; in assay [6] (DRB1 *0101), 10 nM. Moreover, the IC50 is 204 nM in assay [7] and 180 nM in assay [8].
Turning to RIVYRDGNPFAVCKV, the IC50 amounted to 144 nM in assay [1]; 19 nM in assay [9] (DRB1 *0401); 81 nM in assay [10]; 122 nM in [3]; 4960 nM in assay [8].
On to VLDLYPEPTDLYCYE, for which the IC50 in assay [1] is 121 nM; in assay [2] it was above 15200 nM; in [9] (DRB1 *0401), 203 nM; in assay [10], 21600 nM; in [3], above 12000 nM; in [4], above 15300 nM. Moreover, the IC50 in [5] (DRB1 *0701) is above 72300 nM; in assay [6] (DRB1 *0101), 11200 nM; in assay [7], 18 nM; in [8] it was above 32200 nM.
TLRLCVQSTHVDIRT: the IC50 in assay [2] is 17600 nM; in [9] (DRB1 *0401), 12000 nM; in assay [3], 932 nM; in assay [4], above 22900 nM; in [5] (DRB1 *0701), 3260 nM; in assay [6] (DRB1 *0101), 1520 nM. Moreover, the IC50 in [7] turned out to be 243 nM; in assay [8], 6370 nM.
For the compound LQQMLLGTLQVVCPG, the IC50 is above 31600 nM in assay [2]; 1500 nM in assay [9] (DRB1 *0401); 395 nM in [3]; 29200 nM in assay [4]; 929 nM in [5] (DRB1 *0701); 168 nM in assay [6] (DRB1 *0101). Also, the IC50 stood at 1010 nM in [7] and 1690 nM in assay [8].
On to AVGLPSTPVHPIGYY, for which the IC50 in assay [9] (read-out: DRB1 *0401) was found to be 4190 nM; in [6] (read-out: DRB1 *0101) it was 3.6 nM; in assay [11] (read-out: DRB1 *0802), 4430 nM.
On to KEYVLDLYPEPTDLY, for which the IC50 is above 59200 nM in assay [2]; 131 nM in [9] (DRB1 *0401); 3170 nM in [10]; above 14800 nM in [3]; above 55100 nM in assay [4]; above 72300 nM in [5] (DRB1 *0701). Further, the IC50 in assay [6] (DRB1 *0101) was 5950 nM; in assay [8], above 49900 nM.
In the case of `CC[C@H](C)[C@H](NC(=O)[C@H](CC(C)C)NC(=O)[C@H](CCCCN)NC(=O)[C@H](CCCCN)NC(=O)[C@@H](N)Cc1ccc(O)cc1)C(=O)N[C@@H](CCSC)C(=O)N[C@@H](Cc1ccc(O)cc1)C(=O)N[C@@H](CO)C(=O)N[C@@H](C)C(=O)N[C@@H](Cc1c[nH]cn1)C(=O)N[C@@H](CC(=O)O)C(=O)N[C@H](C(=O)N[C@H](C(=O)N[C@H](C(=O)N[C@@H](CO)C(=O)O)C(C)C)[C@@H](C)O)[C@@H](C)O`, the IC50 in assay [1] worked out at 22700 nM; in assay [2], 208 nM; in assay [10], 15 nM; in assay [3], 37 nM; in [4], 5480 nM; in assay [6] (DRB1 *0101), 17 nM. The IC50 came to 5.8 nM in [7] and 107 nM in assay [8].
Regarding LYYLFNQHIKKELYH, the IC50 in assay [3] was found to be 327 nM; in [5] (DRB1 *0701), 10200 nM; in [6] (DRB1 *0101), 27 nM; in assay [7], 1090 nM; in assay [11] it was 1770 nM.
Turning to SMEYKKDFLITARKP, the IC50 turned out to be 24 nM in assay [9] (read-out: DRB1 *0401), 776 nM in assay [5] (read-out: DRB1 *0701) and 8900 nM in [11] (read-out: DRB1 *0802).
For `CC[C@H](C)[C@H](N)C(=O)N[C@@H](CCCNC(=N)N)C(=O)N[C@H](C(=O)N[C@@H](CC(C)C)C(=O)N[C@@H](CCC(N)=O)C(=O)N[C@@H](CCC(=O)O)C(=O)N[C@@H](CC(C)C)C(=O)N[C@@H](CC(C)C)C(=O)N[C@@H](CCSC)C(=O)NCC(=O)N[C@@H](CO)C(=O)N[C@@H](Cc1ccccc1)C(=O)NCC(=O)N[C@H](C(=O)N[C@H](C(=O)O)C(C)C)[C@@H](C)CC)[C@@H](C)CC`, the IC50 in assay [1] is 31800 nM; in assay [2], 7980 nM; in [9] (DRB1 *0401) it was 724 nM; in assay [10], 294 nM; in [3], 1040 nM; in assay [4], above 55100 nM. The IC50 is 2000 nM in assay [5] (DRB1 *0701), 67 nM in assay [6] (DRB1 *0101), 17 nM in [7] and 271 nM in assay [8].
With SKIMKLPKLPISNGK, the IC50 was found to be 6480 nM in assay [9] (DRB1 *0401), 83700 nM in assay [5] (DRB1 *0701), 824 nM in assay [6] (DRB1 *0101) and 110 nM in assay [11].
In the case of VYDFAFADLTVVYRE, the IC50 is above 18000 nM in assay [2]; 9450 nM in assay [10]; above 13100 nM in assay [3]; 7010 nM in [5] (DRB1 *0701); 173 nM in assay [6] (DRB1 *0101); 10700 nM in assay [7]. The IC50 in assay [8] stood at 155 nM.
With QKQLLTNHLINTPK, the IC50 in assay [5] (read-out: DRB1 *0701) was found to be 4410 nM; in assay [11] (read-out: DRB1 *0802), 21000 nM.

The record behind these values is patent publication US20060079453A1, “Hla binding peptides and their uses” (priority 2002, published 2006).
